Values after ≈ are worked out from the molar mass of the structure shown. Bounds are passed on as bounds.

What is called IC50 is the concentration needed to halve the response being measured. What is called inhibition is the drop in the measured response relative to a control, in per cent. Lower therefore signals a weak effect. One may read the GI50 as the concentration giving 50% growth inhibition.

Data set [1] concerns A549. The experiment in a line: Cytotoxicity against human A549 cells assessed as reduction in cell viability by MTT assay. The format is functional, cell-based. Background: Formazan colour is commonly taken as a measure of viable cells.
Data set [2] concerns MCF7. The experiment in a line: Cytotoxicity against human MCF7 cells assessed as reduction in cell viability by MTT assay. The format is functional, cell-based.
Data set [3] in a line: Cytotoxicity against human BEAS-2B cells assessed as reduction in cell viability by MTT assay. In kind it is toxicity, cell-based.
Data set [4] concerns BXPC-3. Put plainly: Antiproliferative activity against human BXPC-3 cells assessed as reduction in cell growth incubated for 72 hrs by MTT assay. The format is functional, cell-based.
Data set [5] concerns MDA-MB-231. The experiment in a line: Antiproliferative activity against human MDA-MB-231 cells. The format is functional, cell-based.
Data set [6] deals with T47D. Put plainly: Antiproliferative activity against human T47D cells. The format is functional, cell-based.
The test system of data set [7] is MCF7. The experiment in a line: Antiproliferative activity against human MCF7 cells. The format is functional, cell-based.
Data set [8] has as its system LoVo. The experiment in a line: Antiproliferative activity against human LoVo cells. The format is functional, cell-based.
In data set [9] the test system is HCT-116. Put plainly: Antiproliferative activity against human HCT-116 cells. In kind it is functional, cell-based.
Data set [10] deals with Cyclin-dependent kinases regulatory subunit 1/S-phase kinase-associated protein 2 (Homo sapiens) (UniProt P61024+Q13309). The experiment in a line: Inhibition of SKP2/CKS1 (unknown origin) protein-protein interaction at 50 uM relative to control. In kind it is protein assay.
Chain of Cyclin-dependent kinases regulatory subunit 1/S-phase kinase-associated protein 2 (Homo sapiens) (P61024 2-79 limits assumed): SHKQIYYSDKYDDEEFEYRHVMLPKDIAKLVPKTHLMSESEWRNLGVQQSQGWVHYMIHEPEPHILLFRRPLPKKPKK
Chain of Cyclin-dependent kinases regulatory subunit 1/S-phase kinase-associated protein 2 (Homo sapiens) (Q13309 whole entry partner): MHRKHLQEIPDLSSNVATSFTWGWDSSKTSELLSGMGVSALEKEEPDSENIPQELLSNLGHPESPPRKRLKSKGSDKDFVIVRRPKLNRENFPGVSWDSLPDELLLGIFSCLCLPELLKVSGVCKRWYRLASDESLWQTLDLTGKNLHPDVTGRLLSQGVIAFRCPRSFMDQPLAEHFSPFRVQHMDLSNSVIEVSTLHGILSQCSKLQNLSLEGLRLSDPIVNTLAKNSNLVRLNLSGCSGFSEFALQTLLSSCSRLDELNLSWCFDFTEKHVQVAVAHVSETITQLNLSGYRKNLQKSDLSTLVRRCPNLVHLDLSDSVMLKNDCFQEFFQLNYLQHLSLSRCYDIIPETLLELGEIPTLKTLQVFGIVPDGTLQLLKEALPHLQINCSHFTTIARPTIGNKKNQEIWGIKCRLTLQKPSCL
Data set [11] in a line: Antioxidant activity assessed as hydroxyl radical scavenging activity. In kind it is functional.
Data set [12] has as its system A549. The experiment in a line: Growth inhibition of human A549 cells measured for 48 hrs by SRB assay. In kind it is functional. In general terms: The SRB assay estimates cell density from bound dye.
Data set [13] deals with PC-3. The experiment in a line: Growth inhibition of human PC-3 cells measured for 48 hrs by SRB assay. The format is functional.
Data set [14] deals with MCF7. The experiment in a line: Growth inhibition of human MCF7 cells measured for 48 hrs by SRB assay. In kind it is functional.
For data set [15], the system named is HepG2. Put plainly: Growth inhibition of human HepG2 cells measured for 48 hrs by SRB assay. The format is functional.
A short description of data set [16]: Antioxidant activity assessed as DPPH radical scavenging activity. The format is functional. For orientation: DPPH is a stable violet radical that fades when it is reduced.
The test system of data set [17] is A549. Put plainly: Cytotoxicity against human A549 cells assessed as reduction in cell growth by resazurin assay. In kind it is functional, cell-based.
The subject of data set [18] is NIH3T3. The experiment in a line: Cytotoxicity against mouse NIH/3T3 cells assessed as reduction in cell growth by resazurin assay. The format is functional, cell-based.
The test system of data set [19] is HL-60. The experiment in a line: Cytotoxicity against human HL-60 cells assessed as reduction in cell growth by resazurin assay. The format is functional, cell-based.
The test system of data set [20] is Bacillus subtilis. The experiment in a line: Antibacterial activity against Bacillus subtilis assessed as reduction in bacterial growth. In kind it is functional, organism-based.
Data set [21] has as its system Escherichia coli. The experiment in a line: Antimicrobial activity against Escherichia coli assessed as reduction in microbial growth. The format is functional, organism-based.
The test system of data set [22] is HeLa. Put plainly: Antiproliferative activity against human HeLa cells assessed as reduction in cell viability incubated for 48 hrs by MTT assay. The format is functional, cell-based.
Data set [23] deals with A549. Put plainly: Antiproliferative activity against human A549 cells assessed as reduction in cell viability incubated for 24 hrs by MTT assay. In kind it is functional, cell-based. The following applies: A549, 24 h.
The subject of data set [24] is HeLa. The experiment in a line: Antiproliferative activity against human HeLa cells assessed as reduction in cell growth by MTT assay. In kind it is functional, cell-based.
For data set [25], the system named is A549. Put plainly: Antiproliferative activity against human A549 cells assessed as reduction in cell growth by MTT assay. The format is functional, cell-based.

Turning to `COC(=O)c1nc2nc(Oc3ccccc3)c(C#N)c(-c3ccc([N+](=O)[O-])cc3)c2c(N)c1C(=O)OC`, the IC50 in data set [1] worked out at 8.24 µg/mL (≈ 16.5 µM); in data set [2], 7.57 µg/mL (≈ 15.2 µM); in [3], 51.3 µg/mL (≈ 103 µM).
Turning to `Cc1ccc([C@H]2NC(=O)n3c(cc4ccccc43)C23CC3)cc1` (stereo in doubt; 16a), in data set [4] (bxpc-3), the IC50 came out at 8.6 µM.
As for `C=C1N(S(=O)(=O)c2ccc(C)cc2)c2ccccc2[C@@]1(C)N`, the IC50 was 6.66 µM in data set [5]; 17.7 µM in data set [6]; 16.1 µM in [7]; above 25 µM in data set [8]; above 25 µM in [9].
As for `O=C(CCCCCCC(=O)Nc1ccccc1)NO` [VORINOSTAT], the IC50 is 0.74 µM in data set [8] and 10.1 µM in [9].
In the case of `COc1cc(OC)c(-c2cc(CC3c4ccccc4C(=O)N3c3ccc(C)cc3)nc3ncnn23)c(OC)c1` (stereo not drawn), the inhibition in [10] worked out at 45%.
For `CCc1cc(C(=O)c2ccccc2Cl)c(NC(c2cccs2)c2c(O)ccc3ccccc23)s1` (stereo not drawn), the values for the IC50 in data set [11] and in data set [16] were 34.8 µM and 32.1 µM, respectively. For the same compound, the GI50 in data set [12], in [13], in data set [14] and in data set [15] was below 10 µg/mL each time.
As to `C=C1N(S(=O)(=O)c2ccc(C)cc2)c2ccccc2[C@]1(C)N`, the IC50 is 2.15 µM in data set [5]; 2.88 µM in data set [6]; 2.21 µM in data set [7]; 3.65 µM in [8]; 4.3 µM in [9].
Turning to `O=C1O[C@H]([C@@H](O)CO)C(O)=C1O` [ASCORBIC ACID], the IC50 stood at 25.1 µM in data set [11] and 27.3 µM in data set [16]. Besides, the 50% growth inhibitory concentration (GI50) in data set [12], in [13], in data set [14] and in [15] was below 10 µg/mL each time.
For `Nc1ccn([C@@H]2O[C@H](CO)[C@@H](O)C2(F)F)c(=O)n1` [GEMCITABINE], the IC50 in data set [4] (Homo sapiens, BXPC-3, 72 h) is 2.3 µM.
With `Cc1ccc(C2NC(=O)n3c(cc4ccccc43)C23CC3)cc1` (racemic), in data set [4] (Homo sapiens, BXPC-3, 72 h), the IC50 was determined as 3.1 µM.
The same measure, in the same setting: next, `Cc1ccc([C@H]2NC(=O)n3c(cc4ccccc43)C23CC3)cc1` (stereo in doubt; (R)-16a): 6.1 µM.
Take `N#CC1=C(N)Oc2ccccc2C1P(=O)(OCc1ccccc1)OCc1ccccc1` (stereo not drawn): the IC50 in data set [17] was 26.5 µM; in data set [18], 8.73 µM; in data set [19], 6.25 µM; in [20], above 10 µM; in data set [21], above 10 µM.
Take `COC(=O)c1nc2nc(Oc3ccccc3)c(C#N)c(-c3ccc(OC)cc3)c2c(N)c1C(=O)OC`: the half-maximal inhibitory concentration (IC50) in data set [1] came out at 10.1 µg/mL (≈ 20.9 µM); in data set [2], 48.2 µg/mL (≈ 99.6 µM); in data set [3], 51.3 µg/mL (≈ 106 µM).
Turning to `CCc1cc(C(=O)c2ccccc2Cl)c(NC(c2cc(OC)c(OC)c(OC)c2)c2c(O)ccc3ccccc23)s1` (stereo not drawn), the half-inhibitory concentration (IC50) in data set [11] worked out at 32.8 µM; in data set [16], 33.5 µM. Moreover, the GI50 in data set [12], in [13], in data set [14] and in [15] was below 10 µg/mL in each case.
In the case of `Cc1nn(-c2ccccc2Cl)c(O)c1-c1ccccc1C1=Nc2ccccc2C1(C)C`, the IC50 in [22] stood at 26.7 µM.
For the compound `CN1C(=O)C2(N=C(c3ccccc3)N3CCc4cc(Br)cc2c43)c2ccccc21` (stereo not drawn), the IC50 in data set [23] came to 1 µM.
Turning to `Cc1nn(-c2ccc(C#N)cc2)c(O)c1-c1ccccc1C1=Nc2ccccc2C1(C)C`, in data set [22], the IC50 worked out at 27.3 µM.
On to `OC1(C(F)(F)F)C=C(c2ccccc2)c2cc3ccccc3n21` (stereo not drawn), for which the half-inhibitory concentration (IC50) in [24] is 2.17 µM; in data set [25], 11.9 µM.
Take `CCc1cc(C(=O)c2ccccc2Cl)c(NC(c2ccc(F)cc2)c2c(O)ccc3ccccc23)s1` (stereo not drawn): the IC50 in data set [11] was found to be 31.3 µM; in data set [16], 29.8 µM. Moreover, the GI50 in data set [12], in [13], in data set [14] and in [15] was below 10 µg/mL throughout.
Take `Cc1nn(-c2ccc(C(C)C)cc2)c(O)c1-c1ccccc1C1=Nc2ccccc2C1(C)C`: the IC50 in data set [22] came out at 23.8 µM.

The record behind these values is ChEMBL document CHEMBL6134800, “Applications of innovative synthetic strategies in anticancer drug discovery: The driving force of new chemical reactions” (Bioorg Med Chem Lett, 2025).
